From US9499537B2, “Antiviral pyrrolopyridine derivatives and method for preparing the same” (KOREA RESEARCH INSTITUTE OF CHEMICAL TECHNOLOGY, priority 2011, dated 2016) come the findings set out here.

Each structure is given as a SMILES string.

In this data set the test system is MT-4 cells. Kind of data set: Cytotoxicity test in MT-4 cells (MTT method). The format is cell-based. The settings on record: human. As for the experimental part: In order to look into the HIV-1 inhibition effects of the compound of the present invention, an in vitro test for HIV-1 inhibition effects was carried out as follows according to a known method (H. Tanaka et al., J. Med. Chem., 1991, 34, 349). MT-4 cells were used as host cells, and the degree of the compound of the present invention inhibiting the cytotoxicity of the virus-infected MT-4 cells was investigated.
First, MT-4 cells were diffused at a concentration of 1×10^4 cell/well to a culture medium, and HIV-1 was inoculated so that the concentration was 500 TCI50 (concentration at which 50% of the cell is infected)/well. Immediately after the inoculation, the cell dispersion was transferred in 100 μL each to a flat microtiter plate in which the sample of the compound of the present invention was placed. The sample was incubated for approximately for 4 to 5 days at […], and the virus suppression effect was determined using an MTT method. In addition, the cytotoxicity was also determined by measuring the survivability of the experimentally virus-infected cells using an MTT method. As a comparative compound, azidothymidine (AZT) and raltegravir were used.
As for `Cc1nc2c(c(C)c(C)n2CC(=O)O)c(-c2ccc(Cl)cc2)c1[C@H](OC(C)(C)C)C(=O)O` [Example 57, (S)-2-(Tert-butoxy)-2-(1-carboxymethyl)-(4-(4-chlorophenyl)-2,3,6-trimethyl-1H-pyrrolo[2,3-b]pyridin-5-yl)acetic acid], the “CC60 (μM) ** : concentration at 50% cell damage with respect to MT-4 cells” value was greater than 217.9 µM.

On to `Cc1nc2c(c(C)c(C)n2CC(F)(F)F)c(-c2ccc(Cl)cc2)c1[C@H](OC(C)(C)C)C(=O)O` [Example 59, (S)-2-(Tert-butoxy)-2-(4-(4-chlorophenyl)-2,3,6-trimethyl-1-(2,2,2-trifluoromethyl)-1H-pyrrolo[2,3-b]pyridin-5-yl)acetic acid], for which the “CC60 (μM) ** : concentration at 50% cell damage with respect to MT-4 cells” value turned out to be 5.3 µM.

In the case of `Cc1nc2c(c(C)c(C)n2CCCC#N)c(-c2ccc(Cl)cc2)c1[C@H](OC(C)(C)C)C(=O)O` [Example 60, (S)-2-(Tert-butoxy)-2-(4-(4-chlorophenyl)-1-(3-cyanopropyl)-2,3,6-trimethyl-1H-pyrrolo[2,3-b]pyridin-5-yl)acetic acid], the “CC60 (μM) ** : concentration at 50% cell damage with respect to MT-4 cells” value amounted to 18.23 µM.

`Cc1nc2c(c(C)c(C)n2Cc2cccc(C#N)c2)c(-c2ccc(Cl)cc2)c1[C@H](OC(C)(C)C)C(=O)O` [Example 61, (S)-2-(Tert-butoxy)-2-(4-(4-chlorophenyl)-1-(3-cyanobenzyl)-2,3,6-trimethyl-1H-pyrrolo[2,3-b]pyridin-5-yl)acetic acid]: the “CC60 (μM) ** : concentration at 50% cell damage with respect to MT-4 cells” value was found to be 9.43 µM.

With `Cc1nc2c(c(C)c(C)n2Cc2ccoc2)c(-c2ccc(Cl)cc2)c1[C@H](OC(C)(C)C)C(=O)O` [Example 62, (S)-2-(Tert-butoxy)-2-(4-(4-chlorophenyl)-1-(furan-3-ylmethyl)-2,3,6-trimethyl-1H-pyrrolo[2,3-b]pyridin-5-yl)acetic acid], the “CC60 (μM) ** : concentration at 50% cell damage with respect to MT-4 cells” value turned out to be 15.34 µM.

Turning to `Cc1nc2c(c(C)c(C)n2Cc2cncs2)c(-c2ccc(Cl)cc2)c1[C@H](OC(C)(C)C)C(=O)O` [Example 63, (S)-2-(Tert-butoxy)-2-(4-(4-chlorophenyl)-2,3,6-trimethyl-1-(thiazol-5-ylmethyl)-1H-pyrrolo[2,3-b]pyridin-5-yl)acetic acid], the “CC60 (μM) ** : concentration at 50% cell damage with respect to MT-4 cells” value was 38.3 µM.

For `Cc1nc2c(c(C)c(C)n2Cc2nccs2)c(-c2ccc(Cl)cc2)c1[C@H](OC(C)(C)C)C(=O)O` [Example 64, (S)-2-(Tert-butoxy)-2-(4-(4-chlorophenyl)-2,3,6-trimethyl-1-(thiazol-2-ylmethyl)-1H-pyrrolo[2,3-b]pyridin-5-yl)acetic acid], the “CC60 (μM) ** : concentration at 50% cell damage with respect to MT-4 cells” value worked out at 48.57 µM.

Regarding `Cc1nc2c(c(C)c(C)n2CCN(C)C)c(-c2ccc(Cl)cc2)c1[C@H](OC(C)(C)C)C(=O)O` [Example 65, (S)-2-(Tert-butoxy)-2-(4-(4-chlorophenyl)-1-(2-dimethylaminoethyl)-2,3,6-trimethyl-1H-pyrrolo[2,3-b]pyridin-5-yl)acetic acid], the “CC60 (μM) ** : concentration at 50% cell damage with respect to MT-4 cells” value came out at 70.86 µM.

Turning to `Cc1nc2c(c(C)c(C)n2Cc2ccnc(F)c2)c(-c2ccc(Cl)cc2)c1[C@H](OC(C)(C)C)C(=O)O` [Example 66, (S)-2-(Tert-butoxy)-2-(4-(4-chlorophenyl)-1-((2-fluoropyridin-4-yl)methyl)-2,3,6-trimethyl-1H-pyrrolo[2,3-b]pyridin-5-yl)acetic acid], the “CC60 (μM) ** : concentration at 50% cell damage with respect to MT-4 cells” value stood at 14.55 µM.

For `Cc1nc2c(c(C)c(C)n2Cc2ccc(F)nc2)c(-c2ccc(Cl)cc2)c1[C@H](OC(C)(C)C)C(=O)O` [Example 67, (S)-2-(Tert-butoxy)-2-(4-(4-chlorophenyl)-1-((6-fluoropyridin-3-yl)methyl)-2,3,6-trimethyl-1H-pyrrolo[2,3-b]pyridin-5-yl)acetic acid], the “CC60 (μM) ** : concentration at 50% cell damage with respect to MT-4 cells” value amounted to 13.65 µM.
